Assay [1] deals with Photoreceptor-specific nuclear receptor (Homo sapiens, UniProt Q9Y5X4). It counts as functional, cell-based.
Assay [2] concerns the target T1, Probable nicotinate-nucleotide adenylyltransferase (Staphylococcus aureus (strain N315), UniProt P65502). It counts as functional, Staphylococcus aureus subsp. aureus N315.
In assay [3] the target is T1, Probable nicotinate-nucleotide adenylyltransferase. It counts as functional, Staphylococcus aureus subsp. aureus N315. The note with it: read-out: IC50_Mean.
In assay [4] the target is Nuclear receptor subfamily 5 group A member 2 (Homo sapiens, UniProt O00482). It counts as functional, cell-based.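 Also: HEK293T cells transfected with LRH-1 and a StAR promoter luciferase reporter; potency for inhibitors that lower LRH-1 driven reporter light.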
Nuclear receptor subfamily 5 group A member 2, sequence (O00482 whole entry): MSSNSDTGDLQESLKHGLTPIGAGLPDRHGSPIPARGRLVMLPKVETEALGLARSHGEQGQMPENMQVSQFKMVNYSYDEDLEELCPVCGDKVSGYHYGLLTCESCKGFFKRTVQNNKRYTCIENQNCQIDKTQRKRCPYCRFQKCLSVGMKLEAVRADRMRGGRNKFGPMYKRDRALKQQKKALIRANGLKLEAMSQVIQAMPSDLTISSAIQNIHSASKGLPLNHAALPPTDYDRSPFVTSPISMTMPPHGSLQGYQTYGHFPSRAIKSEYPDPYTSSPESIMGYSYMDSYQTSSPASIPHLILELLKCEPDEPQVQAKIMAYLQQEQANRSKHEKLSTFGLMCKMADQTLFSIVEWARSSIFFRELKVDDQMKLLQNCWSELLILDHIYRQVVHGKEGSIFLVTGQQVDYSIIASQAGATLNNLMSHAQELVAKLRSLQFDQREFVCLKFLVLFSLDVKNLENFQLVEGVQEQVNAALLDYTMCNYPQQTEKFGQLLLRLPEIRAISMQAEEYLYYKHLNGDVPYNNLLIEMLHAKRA
The next assay has as its target Steroidogenic factor 1 (Homo sapiens, UniProt Q13285). Put plainly: Counterscreen for inverse agonists of the liver receptor homolog-1 (LRH-1; NR5A2): Luminescence-based cell-based high throughput dose response assay to identify inverse agonists of the Steroidogenic Factor 1 Nuclear Receptor (SF1; NR5A1). It counts as functional.
Assay [5] can be described thus: nonselective StAR promoter luciferase inhibitors – cell-based, luminescence, luciferase reporter, counter-screen for LRH-1 inverse agonist project, dose response (AID 651969). The format is functional. In general terms: In a reporter assay the amount or activity of a reporter protein is the signal.
A short description of assay [6]: cells. The format is functional, cell-based.
A short description of assay [7]: cells. The format is functional, cell-based. This is another data set of the same source.
The next assay deals with Mu-type opioid receptor (Homo sapiens, UniProt P35372). The format is functional, cell-based.
Mu-type opioid receptor, sequence (P35372 whole entry): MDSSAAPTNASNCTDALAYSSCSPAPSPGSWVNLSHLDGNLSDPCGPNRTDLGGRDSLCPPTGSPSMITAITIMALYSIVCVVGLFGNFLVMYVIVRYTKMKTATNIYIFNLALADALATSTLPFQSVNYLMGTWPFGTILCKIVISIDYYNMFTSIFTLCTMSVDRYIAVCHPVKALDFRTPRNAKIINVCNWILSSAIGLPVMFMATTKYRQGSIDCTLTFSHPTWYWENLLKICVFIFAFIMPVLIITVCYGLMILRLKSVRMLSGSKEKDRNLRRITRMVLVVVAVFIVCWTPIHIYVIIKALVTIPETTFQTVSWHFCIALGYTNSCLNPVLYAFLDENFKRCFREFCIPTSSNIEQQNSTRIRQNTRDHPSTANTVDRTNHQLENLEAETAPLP
In assay [8] the target is 5-hydroxytryptamine receptor 2A (Mus musculus, UniProt P35363). It counts as functional, cell-based.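 Also: CHO-K1 cells with tagged receptor and beta-arrestin; agonist potency measured as compound-induced activation of the receptor.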
5-hydroxytryptamine receptor 2A, sequence (P35363 whole entry): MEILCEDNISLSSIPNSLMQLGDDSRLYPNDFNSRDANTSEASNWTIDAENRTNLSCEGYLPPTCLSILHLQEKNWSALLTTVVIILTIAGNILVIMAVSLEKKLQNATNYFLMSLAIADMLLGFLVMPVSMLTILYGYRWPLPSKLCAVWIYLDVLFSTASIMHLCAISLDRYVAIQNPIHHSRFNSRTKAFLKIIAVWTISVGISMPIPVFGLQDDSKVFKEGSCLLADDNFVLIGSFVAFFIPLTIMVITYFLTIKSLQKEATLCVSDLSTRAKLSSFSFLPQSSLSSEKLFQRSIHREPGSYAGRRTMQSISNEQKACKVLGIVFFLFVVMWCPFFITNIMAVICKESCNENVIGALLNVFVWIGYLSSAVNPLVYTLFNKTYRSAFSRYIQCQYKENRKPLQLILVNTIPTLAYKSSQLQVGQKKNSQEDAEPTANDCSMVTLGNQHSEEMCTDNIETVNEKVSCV
The nature of assay [9]: viability of uninfected HEp-2 cells – cell-based, HTS, cytotoxicity control for RSV inhibitor project, dose response (AID 2410). Particulars: human respiratory syncytial virus. The format is functional.
A further assay deals with Vero. As to the kind of experiment: cells. It counts as functional. Particulars: Chlorocebus sabaeus.
Assay [10] deals with Fructose-bisphosphate aldolase (Mycobacterium tuberculosis, UniProt P9WQA3). As to the kind of experiment: Fluorescence-based biochemical high throughput dose response assay for inhibitors of the fructose-bisphosphate aldolase (FBA) of M. tuberculosis. It counts as functional.
Fructose-bisphosphate aldolase, sequence (P9WQA3 whole entry): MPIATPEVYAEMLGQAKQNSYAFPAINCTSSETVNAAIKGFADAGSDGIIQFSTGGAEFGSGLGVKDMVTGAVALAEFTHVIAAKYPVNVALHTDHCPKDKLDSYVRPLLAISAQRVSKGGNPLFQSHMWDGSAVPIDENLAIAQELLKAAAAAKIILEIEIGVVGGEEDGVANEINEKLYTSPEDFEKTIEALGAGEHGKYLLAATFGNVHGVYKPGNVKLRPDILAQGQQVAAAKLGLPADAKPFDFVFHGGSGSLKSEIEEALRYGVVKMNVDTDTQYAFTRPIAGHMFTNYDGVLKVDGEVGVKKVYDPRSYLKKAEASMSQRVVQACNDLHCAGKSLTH
The target of assay [11] is T2, Beta-2 adrenergic receptor (Homo sapiens, UniProt P07550). As to the kind of experiment: Dose response for HTS for Beta-2AR agonists via FAP method from Powderset1. The format is functional.
T2 sequence (P07550 whole entry): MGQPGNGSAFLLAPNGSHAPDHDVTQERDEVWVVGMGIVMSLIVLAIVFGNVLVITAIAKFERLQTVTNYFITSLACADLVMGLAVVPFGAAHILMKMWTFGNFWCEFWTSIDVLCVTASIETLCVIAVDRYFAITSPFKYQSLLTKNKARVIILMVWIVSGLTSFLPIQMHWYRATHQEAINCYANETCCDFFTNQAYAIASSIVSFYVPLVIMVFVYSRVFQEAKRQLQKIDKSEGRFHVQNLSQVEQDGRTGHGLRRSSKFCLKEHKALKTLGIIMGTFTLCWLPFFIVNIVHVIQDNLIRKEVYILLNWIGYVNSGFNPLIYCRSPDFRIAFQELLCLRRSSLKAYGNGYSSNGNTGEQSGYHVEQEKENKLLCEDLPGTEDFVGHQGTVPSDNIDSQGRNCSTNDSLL
Assay [12] has as its target T2, Beta-2 adrenergic receptor. Put plainly: ADRB2 activation measured by internalization – cell-based, FAP fluorogen, flow cytometry, cherry pick 1, dose response (AID 588763). The format is functional. Background: In flow cytometry, cells or beads pass a laser one at a time.
Assay [13] is described as follows: Counterscreen for […] of the human trace amine associated receptor 1 (TAAR1): Fluorescence-based cell-based high throughput dose response assay to identify nonselective Ga16 agonists. It counts as functional. On the technique in general: Counterscreens check selectivity or assay interference.
Assay [14] in a line: Counterscreen for antagonists of the human trace amine associated receptor 1 (hTAAR1): Fluorescence-based cell-based high throughput dose response assay to identify nonselective Ga16 antagonists. It counts as functional.
A short description of assay [15]: bead-based luminescence quenchers, dual-tagged ARNT – biochemical, AlphaScreen, cherry-pick, artefact control for ARNT-TACC3 interaction inhibitor project, dose response (AID 651705).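 Also: AlphaScreen bead proximity signal that flags compounds interfering with the detection technology; potency reflects signal decrease which marks the compound as an assay artifact.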 The format is functional.
Assay [16] can be described thus: inhibition of ARNT PAS-B/TACC3 complex formation – biochemical, AlphaScreen, cherry-picked samples, confirmation (AID 651703).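 Also: His-tagged ARNT PAS-B domain paired with GST-TACC3 E629A dimer coactivator fragment; potency of inhibitors that break up the complex and lower AlphaScreen signal.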 It counts as functional, Homo sapiens.
Another assay concerns the target SUMO-activating enzyme (Homo sapiens, UniProt Q9UBT2). Put plainly: blockers of UBC9-mediated SUMO conjugation – biochemical, AlphaScreen, SUMOylation inhibitor project, confirmation (AID 2018). The format is functional.
The target of assay [17] is Long-chain-fatty-acid--AMP ligase FadD28 (Mycobacterium tuberculosis, UniProt P9WQ59). Put plainly: Fluorescence polarization aasay to screen for inhibitors that compete for the binding of FadD28 to a bisubstrate Measured in Biochemical System Using Plate Reader - 2147-01_Inhibitor_Dose_CherryPick_Activity. It counts as functional, Mycobacterium tuberculosis H37Rv.
Long-chain-fatty-acid--AMP ligase FadD28, sequence (P9WQ59 whole entry): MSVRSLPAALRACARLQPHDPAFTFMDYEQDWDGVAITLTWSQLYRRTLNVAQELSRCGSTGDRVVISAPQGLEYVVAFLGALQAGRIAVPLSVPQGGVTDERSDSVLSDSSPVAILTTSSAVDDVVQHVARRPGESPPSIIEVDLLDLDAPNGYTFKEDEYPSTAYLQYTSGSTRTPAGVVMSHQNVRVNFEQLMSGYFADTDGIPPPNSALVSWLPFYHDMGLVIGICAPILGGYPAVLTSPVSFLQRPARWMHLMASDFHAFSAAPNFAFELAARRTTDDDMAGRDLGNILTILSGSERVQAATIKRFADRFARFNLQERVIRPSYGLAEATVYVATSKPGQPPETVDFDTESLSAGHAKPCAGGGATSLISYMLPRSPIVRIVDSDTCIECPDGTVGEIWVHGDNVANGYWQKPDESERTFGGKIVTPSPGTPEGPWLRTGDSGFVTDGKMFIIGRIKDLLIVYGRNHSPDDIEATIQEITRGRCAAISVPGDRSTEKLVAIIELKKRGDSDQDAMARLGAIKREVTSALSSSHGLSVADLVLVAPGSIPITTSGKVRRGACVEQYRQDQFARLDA
The test system of assay [18] is Streptococcus sp. 'group A'. Put plainly: Streptococcus pyogenes SK(-)GAS viability under kanamycin – luminescence, BacTiterGlo, confirmation, counter-screen for streptokinase expression inhibitor project, dose response (AID 1900). The format is functional, organism-based.
For another assay, the target named is T3, Streptokinase A (Streptococcus pyogenes serotype M1, UniProt P10520).
T3 sequence (P10520 whole entry): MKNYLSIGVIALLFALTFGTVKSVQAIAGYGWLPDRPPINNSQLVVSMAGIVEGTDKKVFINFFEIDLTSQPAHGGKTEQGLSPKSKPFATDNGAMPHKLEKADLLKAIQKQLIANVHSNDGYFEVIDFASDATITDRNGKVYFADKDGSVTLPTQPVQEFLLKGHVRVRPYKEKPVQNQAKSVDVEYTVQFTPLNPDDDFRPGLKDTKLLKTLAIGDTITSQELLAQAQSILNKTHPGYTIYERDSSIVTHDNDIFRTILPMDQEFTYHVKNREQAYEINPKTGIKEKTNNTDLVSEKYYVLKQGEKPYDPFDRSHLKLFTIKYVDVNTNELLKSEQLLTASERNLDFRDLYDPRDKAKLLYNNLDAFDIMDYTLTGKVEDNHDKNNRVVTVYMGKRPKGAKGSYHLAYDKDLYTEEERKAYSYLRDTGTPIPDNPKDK
Put plainly: viability-normalized secreted streptokinase activity reduction – plasminogen activation absorbance, OD405, dose response (AID 1914).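 Also: secreted streptokinase activity via plasminogen activation per viability signal from cell pellet.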 It counts as functional, Streptococcus pyogenes M1 GAS.

Assay [19] in a line: microbe, parasite or virus in culture. It counts as functional. Particulars: Mycobacterium tuberculosis.
Another assay deals with Streptococcus. Put plainly: GAS UMAA2166 growth inhibition – luminescence, BacTiterGlo, counter-screen for streptokinase expression inhibitor project, dose response (AID 1915).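 Also: potency for reduction of bacterial viability or growth.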 The format is functional, organism-based.
A short description of assay [20]: cells. The format is functional.
Assay [21] deals with T4, RNA-binding protein pos-1 (Caenorhabditis elegans, UniProt G5EF15).
T4 sequence (G5EF15 whole entry): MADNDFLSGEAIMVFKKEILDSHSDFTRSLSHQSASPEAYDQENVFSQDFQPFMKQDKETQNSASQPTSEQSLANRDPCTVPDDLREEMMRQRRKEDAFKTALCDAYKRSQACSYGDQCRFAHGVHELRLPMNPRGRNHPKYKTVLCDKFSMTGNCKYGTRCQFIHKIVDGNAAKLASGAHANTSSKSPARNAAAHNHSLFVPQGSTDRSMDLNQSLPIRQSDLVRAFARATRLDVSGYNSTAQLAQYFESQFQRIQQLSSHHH
Put plainly: disruptors of C. elegans POS-1 RNA interaction – biochemical, fluorescence polarization, dose response (AID 1964).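 Also: purified POS-1 fused to maltose binding protein made in E. coli; potency of compounds blocking POS-1 binding to fluorescent RNA.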

The target of assay [22] is T5, Zinc finger protein mex-5 (Caenorhabditis elegans, UniProt Q9XUB2).
T5 sequence (Q9XUB2 whole entry): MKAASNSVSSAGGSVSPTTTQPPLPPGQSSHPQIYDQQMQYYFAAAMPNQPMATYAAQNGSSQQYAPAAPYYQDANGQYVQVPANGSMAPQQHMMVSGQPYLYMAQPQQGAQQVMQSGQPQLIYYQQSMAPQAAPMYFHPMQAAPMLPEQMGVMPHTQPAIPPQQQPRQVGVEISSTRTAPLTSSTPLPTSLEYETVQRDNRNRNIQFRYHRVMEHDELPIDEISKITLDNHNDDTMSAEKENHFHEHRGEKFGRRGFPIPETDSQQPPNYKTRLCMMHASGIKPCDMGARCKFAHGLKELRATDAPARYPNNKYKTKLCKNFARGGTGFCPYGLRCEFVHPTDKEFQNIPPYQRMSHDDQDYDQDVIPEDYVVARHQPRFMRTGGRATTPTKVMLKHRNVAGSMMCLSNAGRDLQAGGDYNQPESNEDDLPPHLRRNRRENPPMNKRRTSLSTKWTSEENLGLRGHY
As to the kind of experiment: potency of MEX-5 RNA-binding blockers – biochemical, C. elegans, fluorescence polarization, dose response (AID 1960).

Assay [23] in a line: Trypanosoma cruzi growth suppression in host cells – NIH3T3 host cells, beta-gal luminescence, confirmation (AID 2044).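 Also: intracellular parasites grown in NIH/3T3 mouse fibroblasts as host cells; luminescent beta-galactosidase reporter signal from transgenic T. cruzi replicating inside host cells; inhibitors lower the luminescence signal.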 It counts as functional, cell-based.
Assay [24] in a line: NIH3T3 cell viability loss – ATP luminescence, mouse fibroblasts, counter-screen, dose response (AID 2010).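 Also: cells exposed to compound for about 90 hours before reading.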 The format is functional, cell-based.
The target in another assay is Albumin (Bos taurus, UniProt P02769). As to the kind of experiment: Counterscreen for inhibitors of T-cell receptor (TCR)-CD3 interaction: Fluorescence-based biochemical high throughput dose response assay to identify inhibitors of T-cell receptor (TCR)-CD3 interaction using a TAMRA-labeled BSA probe. It counts as functional.
Albumin, sequence (P02769 whole entry): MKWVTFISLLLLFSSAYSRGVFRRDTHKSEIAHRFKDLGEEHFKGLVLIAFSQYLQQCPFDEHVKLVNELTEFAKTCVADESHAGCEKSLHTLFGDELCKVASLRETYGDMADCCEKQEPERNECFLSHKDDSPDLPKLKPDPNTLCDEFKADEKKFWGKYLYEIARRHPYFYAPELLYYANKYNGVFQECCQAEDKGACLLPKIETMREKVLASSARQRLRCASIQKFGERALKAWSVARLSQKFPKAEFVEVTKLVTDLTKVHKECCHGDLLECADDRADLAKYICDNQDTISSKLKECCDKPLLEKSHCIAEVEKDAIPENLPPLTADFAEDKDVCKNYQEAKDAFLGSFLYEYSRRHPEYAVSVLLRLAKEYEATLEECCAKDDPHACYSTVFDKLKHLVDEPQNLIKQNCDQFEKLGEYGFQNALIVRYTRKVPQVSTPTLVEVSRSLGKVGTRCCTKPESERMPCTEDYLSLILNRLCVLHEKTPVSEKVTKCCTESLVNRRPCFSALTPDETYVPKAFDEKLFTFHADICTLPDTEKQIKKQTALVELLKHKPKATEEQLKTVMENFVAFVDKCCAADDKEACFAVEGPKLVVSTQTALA

Molecules are shown by their SMILES. Active and inactive are the calls of the source. Bounds are passed on as bounds.

Broadly, the EC50 is the concentration giving half of the maximal effect. What is called AC50 is the midpoint of the concentration-response curve, whichever way the signal moves.
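For IC50 Mean in this document: confirmatory dose-response retesting of NadD inhibitor hits first found in an ultra-high-throughput screen.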

T1 sequence (P65502 whole entry): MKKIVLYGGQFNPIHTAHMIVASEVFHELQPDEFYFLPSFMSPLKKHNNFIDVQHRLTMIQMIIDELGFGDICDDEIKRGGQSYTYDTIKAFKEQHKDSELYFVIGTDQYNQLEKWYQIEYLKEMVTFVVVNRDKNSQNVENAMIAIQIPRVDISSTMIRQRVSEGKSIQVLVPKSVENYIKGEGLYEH
Steroidogenic factor 1, sequence (Q13285 whole entry): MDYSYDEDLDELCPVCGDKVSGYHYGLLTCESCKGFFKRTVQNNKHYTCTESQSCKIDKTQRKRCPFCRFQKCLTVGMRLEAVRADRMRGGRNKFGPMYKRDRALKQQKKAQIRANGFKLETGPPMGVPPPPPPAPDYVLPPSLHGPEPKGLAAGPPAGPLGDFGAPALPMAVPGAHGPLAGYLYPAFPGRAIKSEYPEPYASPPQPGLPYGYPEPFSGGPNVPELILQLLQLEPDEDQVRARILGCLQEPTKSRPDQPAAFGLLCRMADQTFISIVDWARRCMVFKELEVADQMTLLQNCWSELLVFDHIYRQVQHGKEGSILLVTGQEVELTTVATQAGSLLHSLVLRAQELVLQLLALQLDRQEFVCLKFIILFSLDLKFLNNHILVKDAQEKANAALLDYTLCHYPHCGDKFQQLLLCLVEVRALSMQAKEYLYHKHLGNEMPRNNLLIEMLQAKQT
Photoreceptor-specific nuclear receptor, sequence (Q9Y5X4 whole entry): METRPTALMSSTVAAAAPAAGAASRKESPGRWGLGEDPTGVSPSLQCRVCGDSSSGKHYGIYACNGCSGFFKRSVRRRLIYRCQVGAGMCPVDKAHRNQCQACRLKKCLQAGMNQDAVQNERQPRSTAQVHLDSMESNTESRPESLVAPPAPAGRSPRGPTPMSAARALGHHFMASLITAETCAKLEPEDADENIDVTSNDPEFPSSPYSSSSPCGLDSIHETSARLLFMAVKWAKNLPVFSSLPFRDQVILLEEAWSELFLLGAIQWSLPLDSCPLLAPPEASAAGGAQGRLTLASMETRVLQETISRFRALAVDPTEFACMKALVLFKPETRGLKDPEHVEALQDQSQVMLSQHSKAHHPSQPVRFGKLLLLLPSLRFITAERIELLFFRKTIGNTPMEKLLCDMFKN

In the case of `O=C(Nc1nnc(-c2cccs2)o1)c1cc(-c2ccccc2)nc2ccccc12`, the IC50 in assay [1] is 3.67 µM (active); in assay [2], 6.58 µM (active); in assay [3], 27.6 µM (active).
As to `COc1cc(NC(=O)Cn2ccsc2=N)c(C)cc1[N+](=O)[O-]`, the IC50 in [4] was 35.9 µM (inactive); on Steroidogenic factor 1, 25.3 µM (inactive); in assay [5], 35.9 µM (inactive).
As to `O=C(O)C1CC=C(Cl)CC1C(=O)NCC1OCCc2ccccc21` (stereo not given), the IC50 in the assay “cells [6]” was > 29.9 µM (inactive). In addition, the EC50 in the assay “cells [7]” is > 29.9 µM (inactive).
For `O=C(COc1ccc2c3c(c(=O)oc2c1)CCCC3)NCCN1CCOCC1`, the IC50 is 35.8 µM (inactive) in assay [4], 17 µM (inactive) at Steroidogenic factor 1 and 35.8 µM (inactive) in [5].
As to `C1=CC2CC1CC2CN1CCN(c2ccccc2)CC1` (stereo not given), the EC50 at Mu-type opioid receptor was 92.5 µM (inactive); in assay [8], 76.1 µM (inactive).
Regarding `Cc1cc(=O)oc2cc(OCCc3ccccc3)ccc12`, the CC50 is 35.1 µM (active) in [9] and > 25 µM (active) in the assay on Vero. Besides, the IC50 in assay [10] is 1.35 µM (active).
For `COc1ccc(CN2CCC(Oc3ccc(C(=O)N4CCCC4)cc3)CC2)c(F)c1`, the values for the EC50 in [11] and in assay [12] were 5.42 µM (active) and 4.66 µM (active), respectively.
Regarding `CCOCCOc1cccc(C(=O)NC(c2ccccc2)c2ccccc2)c1`, the EC50 in assay [13] is 10.3 µM (inactive). In addition, the IC50 in assay [14] is 10 µM (inactive).
As for `O=C(NC1CCCCC1)c1ccc2[nH]c(=O)c(=O)[nH]c2c1`, the IC50 in assay [10] is 2.36 µM (active).
`COc1ccccc1NC(=O)CSc1ccc2nnc(-c3cccnc3)n2n1`: the AC50 in assay [15] is 127 µM (active); in assay [16], 118 µM (active).
Take `O=C(O)c1ccc(/C=N/NC(=O)c2ccc(CN3c4cccc5cccc(c45)S3(=O)=O)cc2)cc1`: the results for the IC50 (on SUMO-activating enzyme; in [2]; in [3]) were 10.9 µM (active), 5.94 µM (active) and 27.2 µM (active), respectively.
`Cc1nc2ccccc2n1-c1ccccc1`: the AC50 in assay [17] was 29.5 µM (active).
As for `Cc1c(Cl)cccc1-c1ccc(CNCc2ccccn2)o1`, the EC50 was 13 µM (active) in assay [18], > 150 µM (not active) on Streptokinase A and 70.2 µM (active) in the assay on Streptococcus. Further, the CC50 in assay [19] was > 40 µM (active). Also, the IC50 in “cells [20]” is 0.55 µM (active). In addition, in assay [15], the AC50 was 87.3 µM (active).
Regarding `O=C(N/N=C/c1cc(Cl)cc([N+](=O)[O-])c1O)c1ccc2c(c1)OCO2`, the EC50 was 127 µM (active) in [21], 241 µM (active) in [22], 1.1 µM (active) in assay [23] and 5.65 µM (active) in [24]. In addition, the IC50 on Albumin is > 94.1 µM (inactive).
`CCCN[C@H]1CCc2nc(N)sc2C1`: the values for the EC50 (on Mu-type opioid receptor; in assay [8]) were 92.5 µM (inactive) and 0.00651 µM (active), respectively.

The record behind these values is ChEMBL document CHEMBL1201862, “PubChem BioAssay data set” (2004).
